Data on 23 compounds can be found in PubChem BioAssay (NCI).

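Step 1: Grow cells in 96-well plates. Step 2: Expose to compound for 48 hours at 5 concentrations. Step 3: Interpolate endpoints linearly; if unreached, use highest concentration. Definition used: TGI = concentration required for complete inhibition of growth.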 Some results are limits rather than exact numbers.

Among the test systems are SR leukemia; OVCAR-4 ovarian; CAKI-1 renal; COLO 205 colon; TK-10 renal; RPMI-8226 leukemia; NCI-H226 lung; K-562 leukemia; UO-31 renal.
Holding throughout (experiment): growth of human tumour cells (NCI), 48 h

Turning to `CC(=O)OCC(=O)[C@@]1(O)CC[C@H]2[C@@H]3CCC4=CC(=O)[C@H](C)C[C@]4(C)[C@H]3[C@@H](O)C[C@@]21C`, the TGI in the experiment with SR leukemia, in the experiment with OVCAR-4 ovarian, in the experiment with CAKI-1 renal, in the experiment on COLO 205 colon, in the experiment with TK-10 renal and in the experiment on RPMI-8226 leukemia was above 100 µM each time. The TGI with NCI-H226 lung and in the experiment with K-562 leukemia was above 100 µM in each case.
Take `COc1cc(/C=C/C(=O)c2sc(-n3nc(-c4ccccc4)cc3-c3ccccc3)nc2C)ccc1O`: the TGI in the experiment on CAKI-1 renal, in the experiment with COLO 205 colon, with TK-10 renal, in the experiment with RPMI-8226 leukemia, in the experiment on NCI-H226 lung and in the experiment on K-562 leukemia was above 100 µM throughout. The compound also showed a TGI with UO-31 renal above 100 µM.
Regarding `CSC1=N[C@H](c2ccccc2)CS1`, the TGI in the experiment with OVCAR-4 ovarian, in the experiment with CAKI-1 renal, in the experiment with COLO 205 colon, in the experiment on TK-10 renal, with RPMI-8226 leukemia and in the experiment with K-562 leukemia was above 100 µM in each case. The compound also returned a TGI with UO-31 renal above 100 µM.
Take `COC(=O)c1[nH]c(=S)[nH]c(=O)c1-c1ccc(Cl)cc1`: the TGI in the experiment with SR leukemia, in the experiment on OVCAR-4 ovarian, in the experiment on CAKI-1 renal, in the experiment with COLO 205 colon, with TK-10 renal and with RPMI-8226 leukemia was above 50 µM in each case. The TGI in the experiment on NCI-H226 lung, in the experiment on K-562 leukemia and with UO-31 renal was above 50 µM each time.
Consider `COc1cc(S(=O)(=O)Nc2ccc(-c3csc(N4C(=O)CSC4c4cccs4)n3)cc2)ccc1Cl` (stereo unspecified), for which the TGI in the experiment with SR leukemia is above 100 µM; in the experiment on OVCAR-4 ovarian it was 82.9 µM; with CAKI-1 renal it was above 100 µM; with COLO 205 colon, above 100 µM; with RPMI-8226 leukemia, 66.8 µM; with NCI-H226 lung, 81.8 µM. Besides, the TGI is 95.6 µM in the experiment with K-562 leukemia and above 100 µM in the experiment on UO-31 renal.
As to `O=C(O)C(=C\c1ccc2c(c1)OCO2)/C(=C/c1ccc2c(c1)OCO2)C(=O)O`, the TGI with SR leukemia, with OVCAR-4 ovarian, with CAKI-1 renal, in the experiment on COLO 205 colon, with TK-10 renal and in the experiment with RPMI-8226 leukemia was above 100 µM throughout. Moreover, the TGI in the experiment with NCI-H226 lung, in the experiment with K-562 leukemia and in the experiment on UO-31 renal was above 100 µM throughout.
On to `NC(=O)OCC(COc1ccc(Cl)cc1)OC(=O)c1ccccc1Cl` (stereo unspecified), for which the TGI with SR leukemia was 51.7 µM; in the experiment with CAKI-1 renal, 74.8 µM; in the experiment with COLO 205 colon, 32.7 µM; in the experiment on TK-10 renal, 79.9 µM; with RPMI-8226 leukemia it was 51.6 µM; in the experiment on NCI-H226 lung, 60.2 µM. Moreover, the values for the TGI in the experiment with K-562 leukemia and in the experiment with UO-31 renal were 39.4 µM and 51.5 µM, respectively.
Take `COc1cc(NC(C)=O)c2[nH]c3c(C)cc(NC(C)=O)c(C)c3c2c1`: the TGI with OVCAR-4 ovarian, with CAKI-1 renal, in the experiment with COLO 205 colon, in the experiment on TK-10 renal, with RPMI-8226 leukemia and in the experiment on NCI-H226 lung was above 100 µM each time. The TGI in the experiment with K-562 leukemia and in the experiment with UO-31 renal was above 100 µM throughout.
As for `NS(=O)(=O)c1cc2c(cc1Cl)NC(C(=O)c1cc(=O)c3ccc(O)cc3o1)=NS2(=O)=O`, the TGI in the experiment with SR leukemia, with OVCAR-4 ovarian, with CAKI-1 renal, in the experiment with COLO 205 colon, with TK-10 renal and in the experiment with RPMI-8226 leukemia was above 100 µM throughout. The TGI with NCI-H226 lung, in the experiment on K-562 leukemia and in the experiment with UO-31 renal was above 100 µM in each case.
In the case of `c1ccc(Nc2nnc(CSc3nc(-c4ccccc4)c(-c4ccccc4)[nH]3)s2)cc1`, the TGI in the experiment with SR leukemia is 51.1 µM; with OVCAR-4 ovarian, 87.7 µM; in the experiment on COLO 205 colon, 25.6 µM; in the experiment on TK-10 renal, above 100 µM; in the experiment with RPMI-8226 leukemia, 50.4 µM; with NCI-H226 lung, 33 µM. In addition, the TGI in the experiment on UO-31 renal worked out at 34.7 µM.
For `C=CCONC(=O)c1ccc(Cl)cc1`, the TGI in the experiment on SR leukemia, in the experiment with OVCAR-4 ovarian, in the experiment on CAKI-1 renal, with COLO 205 colon, with TK-10 renal and with RPMI-8226 leukemia was above 100 µM throughout. Moreover, the TGI with K-562 leukemia and in the experiment on UO-31 renal was above 100 µM each time.
In the case of `O=S(=O)([O-])[O-].[Fe+2].c1ccc(/C(=N\Nc2ccccn2)c2ccccn2)cc1`, the TGI in the experiment with OVCAR-4 ovarian was 2.96 µM; in the experiment with CAKI-1 renal it was 10.5 µM; in the experiment with COLO 205 colon, 2.15 µM; in the experiment on TK-10 renal, 7.73 µM; in the experiment on RPMI-8226 leukemia it was 12.4 µM; with NCI-H226 lung, 4.37 µM. The TGI with K-562 leukemia amounted to 8.44 µM; in the experiment on UO-31 renal, 13.1 µM.
Turning to `CCOC(=O)CSc1ccnc(=O)[nH]1`, the TGI in the experiment on CAKI-1 renal, in the experiment with COLO 205 colon, with TK-10 renal, in the experiment on RPMI-8226 leukemia, with K-562 leukemia and in the experiment with UO-31 renal was above 100 µM in each case.
Take `CN(C(=O)C12C3C4C1C1C2C3C41I)C(C)(C)C` (stereo unspecified): the TGI is above 31.6 µM in the experiment on SR leukemia; above 100 µM with OVCAR-4 ovarian; above 100 µM in the experiment with CAKI-1 renal; above 100 µM in the experiment on COLO 205 colon; above 100 µM in the experiment with TK-10 renal; above 100 µM in the experiment with RPMI-8226 leukemia. Further, the TGI in the experiment on NCI-H226 lung was above 94.6 µM; in the experiment on K-562 leukemia, above 100 µM; in the experiment on UO-31 renal, above 100 µM.
On to `COc1cc(/C=C\c2ccccn2)cc(OC)c1OC`, for which the TGI in the experiment on OVCAR-4 ovarian, in the experiment with CAKI-1 renal, in the experiment with COLO 205 colon, in the experiment on TK-10 renal, in the experiment on RPMI-8226 leukemia and in the experiment with NCI-H226 lung was above 100 µM in each case. For the same compound, the TGI in the experiment with K-562 leukemia and in the experiment with UO-31 renal was above 100 µM throughout.
Consider `CC#COP(=O)(OCC)OCC`, for which the TGI with SR leukemia, in the experiment on OVCAR-4 ovarian, in the experiment on CAKI-1 renal, with COLO 205 colon, with TK-10 renal and with RPMI-8226 leukemia was above 100 µM each time. Further, the TGI in the experiment on NCI-H226 lung, in the experiment on K-562 leukemia and with UO-31 renal was above 100 µM each time.
As to `Cn1c(O)c(C(=O)Nc2cccs2)c(=O)[nH]c1=S`, the TGI came to 66.1 µM in the experiment with OVCAR-4 ovarian; 47.8 µM in the experiment on CAKI-1 renal; 30.2 µM with COLO 205 colon; 61.6 µM in the experiment on TK-10 renal; 49.1 µM in the experiment on RPMI-8226 leukemia; 42.6 µM in the experiment on NCI-H226 lung. Moreover, the TGI in the experiment with K-562 leukemia is above 100 µM; with UO-31 renal, 34.1 µM.
Turning to `NC(=S)NNC(=O)/C(=C/c1ccc(/C=C(\NC(=O)c2ccccc2)C(=O)NNC(N)=S)cc1)NC(=O)c1ccccc1`, the TGI with SR leukemia is above 63 µM; in the experiment on OVCAR-4 ovarian, above 100 µM; in the experiment with CAKI-1 renal it was above 100 µM; with COLO 205 colon, above 100 µM; with TK-10 renal, above 100 µM; with RPMI-8226 leukemia, above 70.2 µM. Also, the TGI in the experiment with NCI-H226 lung is above 100 µM; in the experiment on K-562 leukemia, above 31.6 µM; with UO-31 renal, above 100 µM.
For `CC(C)=CCCC1(C)C=Cc2c(c(C)cc3c2[nH]c2cc(O)ccc23)O1` (stereo unspecified), the TGI with SR leukemia, with OVCAR-4 ovarian, with COLO 205 colon, in the experiment on TK-10 renal, with RPMI-8226 leukemia and in the experiment with NCI-H226 lung was above 25 µM each time. Moreover, the TGI with K-562 leukemia and in the experiment on UO-31 renal was above 25 µM throughout.
Consider `CCCCCCn1c(SCC)c2ccccc2c1-c1nc(F)nc(F)n1`, for which the TGI in the experiment with SR leukemia, in the experiment with OVCAR-4 ovarian, in the experiment on CAKI-1 renal, in the experiment with COLO 205 colon, in the experiment on TK-10 renal and with RPMI-8226 leukemia was above 100 µM each time. Moreover, the TGI with NCI-H226 lung, in the experiment with K-562 leukemia and in the experiment with UO-31 renal was above 100 µM throughout.
`O=C(NO)c1ccc([N+](=O)[O-])cc1`: the TGI with CAKI-1 renal is above 100 µM; with COLO 205 colon, 94 µM; in the experiment on TK-10 renal, above 100 µM; with RPMI-8226 leukemia, above 100 µM; with NCI-H226 lung, above 100 µM; in the experiment with K-562 leukemia it was above 100 µM. In the experiment with UO-31 renal, this compound registered a TGI above 100 µM.
For `CC1CC2OC(=O)C3CC(O)CC(=C23)[C@@]12C[C@@H](c1ccoc1)OC2=O` (stereo partly specified), the TGI in the experiment with SR leukemia, in the experiment on OVCAR-4 ovarian, in the experiment with COLO 205 colon, in the experiment with TK-10 renal, with RPMI-8226 leukemia and in the experiment on NCI-H226 lung was above 100 µM in each case. In addition, the TGI with K-562 leukemia and with UO-31 renal was above 100 µM throughout.
On to `COc1ccc(C2c3cc4c(cc3C(O)C3CCC(=O)N23)OCO4)cc1` (stereo unspecified), for which the TGI in the experiment with SR leukemia, with OVCAR-4 ovarian, in the experiment with CAKI-1 renal, in the experiment on COLO 205 colon, with TK-10 renal and in the experiment with RPMI-8226 leukemia was above 100 µM each time. The TGI with NCI-H226 lung, in the experiment on K-562 leukemia and with UO-31 renal was above 100 µM throughout.
